The record followed here is PubChem BioAssay AID365 (MTDP, 2006).

pIC50: −log10 of the molar value. Calls of active or inactive are those of the source. No rule for the calls is given here.

Ribonuclease HI (Escherichia coli (strain K12)), sequence (P0A7Y4 whole entry, looked up): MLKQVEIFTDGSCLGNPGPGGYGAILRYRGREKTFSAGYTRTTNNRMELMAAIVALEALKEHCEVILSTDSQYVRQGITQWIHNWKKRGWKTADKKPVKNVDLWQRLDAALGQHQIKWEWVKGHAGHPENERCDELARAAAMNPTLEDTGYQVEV

This assay concerns the target Ribonuclease HI (Escherichia coli (strain K12)) (UniProt P0A7Y4). Briefly: inhibition of bacterial ribonuclease H activity – biochemical, FRET RNA/DNA duplex cleavage, dose response (AID 365). Particulars: E. coli RNase H, FRET RNA/DNA cleavage fluorescence.
For `CCOc1ccc(N2C(=O)/C(=C/c3ccc(Br)o3)C(=O)NC2=S)cc1`, the negative logarithm of the IC50 (pIC50) is 6.10. For `O=C1C=CC(=O)c2c(O)cccc21`, the pIC50 was 5.31. For `COC(=O)c1c(N)sc(C(=O)Nc2ccc(OC)cc2)c1C`, the IC50 entry is “inactive”. On the same count and under the same terms, with `O=C1c2ccccc2C(=O)c2c(NC3CCCCC3)ccc(Nc3ccc(S(=O)(=O)O)cc3)c21` the entry was “inactive”. On the same count and under the same terms, under `CN1CC(O)C2=CC(=O)C(=O)C=C21` (stereo not drawn) stands > 100 µM (inactive); under `O=C1C=C(NCCc2cc(Br)c(O)c(Br)c2)C(=O)c2ncccc21`, “inactive”; under `Cc1cc(C(=O)O)ccc1-n1c(C)ccc1C`, > 100 µM (inactive). Take `Cc1sc(NC(=O)c2ccco2)c(C(N)=O)c1C`: the IC50 result is “inactive”. Turning to `CC(C)=CCC/C(C)=C/Cc1cc(/C=C/c2cc(O)c(C/C=C(\C)CCC=C(C)C)c(O)c2)cc(O)c1O`, the negative-log IC50 (pIC50) was 5.77.

Regarding `Cc1ccc(N2C(=O)/C(=C/c3ccc(O)c(O)c3)SC2=S)cc1C`, the pIC50 is 5.70. On the same count and under the same terms, with `N#Cc1c(N)nc(SCC(=O)c2ccc(O)c(O)c2)c(C#N)c1-c1ccc(O)cc1` the figure was 5.77; with `O=C1NC(=S)N(c2ccc(Cl)cc2)C(=O)/C1=C/c1ccc(Br)o1`, 5.77.

Consider `Nc1c(S(=O)(=O)O)cc(Nc2cccc(S(N)(=O)=O)c2)c2c1C(=O)c1ccccc1C2=O`, for which the IC50 entry was “inactive”. `COc1cc(/C=N\c2sc3c(c2C(=O)NCc2ccccc2)CCCC3)cc(Cl)c1O`: the negative-log IC50 (pIC50) is 6.02. As to `Cc1ccc(C)n1-c1ccc(O)c(C(=O)O)c1`, the IC50 is > 100 µM (inactive). Consider `Cc1ccc(-c2cc(C(=O)Nc3sc(C(=O)OC(C)C)c(C)c3C(N)=O)c3ccccc3n2)s1`, for which the pIC50 was 5.74. On the same count and under the same terms, under `CC(=O)C1=C(O)[C@@]2(O)C(=O)c3c(c(C)c4ccc(C)c(O)c4c3O)C[C@H]2[C@@H](N)C1=O` stands 5.05. Consider `O=c1[nH]c2[nH]c(=S)[nH]c(=S)c2[nH]1`, for which the IC50 is > 100 µM (inactive). Consider `Cc1ccc(C)n1-c1ccc(SCC(=O)O)cc1`, for which the IC50 was > 100 µM (inactive). On to `Cc1sc(NC(=O)c2ccc3c(c2)OCO3)c(C(N)=O)c1C`, for which the negative logarithm of the IC50 (pIC50) is 5.40. On the same count and under the same terms, with `O=C(O)c1c(Br)c(Br)c(Br)c(Br)c1C1c2ccc(O)cc2Oc2cc(O)ccc21` the figure was 5.10; with `Cc1sc(NC(=O)c2cccc([N+](=O)[O-])c2)c(C(N)=O)c1C`, 6.15.

For `COc1ccc2c(c1)N(C(=O)CN1C(=O)c3ccccc3C1=O)C(C)(C)c1ssc(=S)c1-2`, the IC50 result is “inactive”. On the same count and under the same terms, under `CC(C)OC(=O)c1cc(O)c(O)c(O)c1` stands > 100 µM (inactive); under `COc1ccc(C(=O)NC(=S)Nc2ccc3nn(-c4ccc(C)c(Cl)c4)nc3c2)cc1[N+](=O)[O-]`, “inactive”; under `Cc1cc(=O)c2c(O)c3c(O)cc(O)c4c5c(O)cc(O)c6c(O)c7c(=O)cc(C)c8c1c2c(c34)c(c65)c78`, “inactive”. Still for that read-out and setting: under `C=C(C)[C@@H]1CCc2c(O)c(O)c(=O)cc(C)c2C1` stands “inactive”; under `COc1c(OC)c(O)c2c(=O)cc(-c3ccc(O)c(O)c3)oc2c1OC`, “inactive”. In the case of `Cc1cc(O)c2c(c1O)C(=O)C13C(=C2O)C(=O)C2C(O)C1C1C(O)C3C(=O)C3=C(O)c4c(O)cc(C)c(O)c4C(=O)C321` (stereo not drawn), the IC50 entry is “inactive”. For `O=C1C=C/C(=N\S(=O)(=O)c2cc(Cl)ccc2Cl)C=C1Cl`, the negative logarithm of the IC50 (pIC50) is 5.15. Turning to `Cc1cc(-c2ccco2)c(C#N)c(SCC(=O)c2ccc(O)c(O)c2)n1`, the pIC50 was 5.96.

For the compound `O=S(=O)(Nc1cccc(C(F)(F)F)c1)c1ccc2ccccc2c1`, the IC50 result was “inactive”.

Take `Cc1cc(O)c2c(c1O)C(=O)c1cccc(O)c1C2=O`: the IC50 is > 100 µM (inactive).

As to `C=Cc1c(C)c2cc3[nH]c(cc4nc(cc5nc(cc1[nH]2)C(C)=C5CCC(=O)O)C(CCC(=O)O)=C4C)c(C)c3C=C`, the IC50 result is “inactive”. `COc1cccc(-c2nc3cc(NC(=O)/C=C\c4ccccc4)ccc3o2)c1`: the pIC50 is 5.43. Turning to `C[C@]12Cc3cnc(-c4ccccc4)nc3C[C@@H]1CC[C@@H]1[C@@H]2CC[C@@]2(C)[C@H]1CC[C@]2(C)O`, the IC50 result is “inactive”. Regarding `Cc1ccc(C)n1-c1ccc(Br)cc1C(=O)O`, the IC50 result is “inactive”. Consider `COc1cc(C)cc2c(-c3c(O)cc(O)c4c3C[C@@H](C)N[C@@H]4C)cc(-c3cc(-c4c(O)cc(O)c5c4C[C@@H](C)N[C@@H]5C)c4cc(C)cc(OC)c4c3O)c(O)c12`, for which the pIC50 is 5.92. In the case of `C=CC(C)(C)C12CC3C(=O)N/C(=C\c4cnc[nH]4)C(=O)N3C1Nc1ccccc12` (stereo not drawn), the IC50 was > 100 µM (inactive). With `COc1ccc(C2COc3cc(O)c(O)cc3C2)cc1` (stereo not drawn), the IC50 result was “inactive”. On the same count and under the same terms, under `COc1cccc2cc(C(N)=O)c(=O)oc12` stands > 100 µM (inactive).

As to `Cc1sc2nc(-c3ccc([N+](=O)[O-])cc3)[nH]c(=O)c2c1C`, the pIC50 was 5.80. `Oc1cc(CN2COc3ccccc32)c(O)cc1CNC1CCCCC1`: the IC50 is > 100 µM (inactive).

As for `CCN1C(=O)/C(=C/c2ccoc2)C(=O)NC1=S`, the IC50 entry is “inactive”.

Turning to `Cc1cccc(NC(=O)c2c(NC(=O)c3ccc([N+](=O)[O-])cc3)sc3c2CCCC3)c1`, the negative-log IC50 (pIC50) was 6.55. In the case of `O=c1oc2ccccc2c(O)c1/C=C1\C=Nc2ccccc21`, the IC50 entry is “inactive”. Turning to `O=C1NC(=S)N(c2ccccc2F)C(=O)/C1=C/c1ccc(OCc2cccc(C(=O)O)c2)cc1`, the IC50 entry was “inactive”. Turning to `O=C1NC(=S)N(c2cccc(Cl)c2)C(=O)/C1=C\C=C\c1ccco1`, the IC50 entry is “inactive”. Still for that read-out and setting: with `Cc1ccc(C2COc3cc(O)c(O)cc3C2)cc1` (stereo not drawn) the entry was “inactive”.

As to `N#C/C(=C\Nc1ccc(S(=O)(=O)Nc2nccs2)cc1)c1nc(-c2ccc(Cl)cc2)cs1`, the pIC50 is 5.92. As to `O=C(N/N=C/c1ccccc1Cl)c1cc(O)c(O)c(O)c1`, the IC50 entry is “inactive”.

Consider `O=C1NC(=S)N(c2ccc(Cl)cc2)C(=O)/C1=C/c1ccco1`, for which the IC50 result was “inactive”. Consider `CC1Oc2cc3c(-c4c(O)cc(O)c5c(O)c6c(cc45)OC(C)C(C)C6=O)c(O)cc(O)c3c(O)c2C(=O)C1C` (stereo not drawn), for which the IC50 result is “inactive”. With `O=C1/C(=C/c2ccco2)C(=O)N(c2ccc(Br)cc2)C(=S)N1c1ccccc1`, the IC50 entry is “inactive”. For `Cc1cc(Cl)ccc1OCC(=O)Nc1sc(C)c(C)c1C(N)=O`, the negative logarithm of the IC50 (pIC50) was 5.92. Same read-out and setting: under `O=C1NC(=S)S/C1=C/c1cccc(OCc2ccc(Cl)c(Cl)c2)c1` stands 5.36. As for `COc1ccc(-c2nc3sc(-c4ccc(OC)cc4)nc3s2)cc1`, the IC50 was > 100 µM (inactive). On to `CCOc1ccc(NC(=O)c2c(NC(=O)c3ccccc3)sc3c2CCCCC3)cc1`, for which the negative logarithm of the IC50 (pIC50) was 6.48.

As for `Cc1onc(-c2ccccc2)c1C(=O)Nc1sc(C)c(C)c1C(N)=O`, the IC50 result is “inactive”. For the compound `O=C(O)c1cc(-c2ccc(/C=C3/Sc4ccccc4C3=O)o2)ccc1O`, the pIC50 is 6.00. Still for that read-out and setting: under `Cc1ccc(-n2c(/C=C/c3ccc(O)c(O)c3)nc3ccccc3c2=O)cc1` stands 5.30; under `Oc1ccc(/C=N/Nc2nncc(-c3ccccc3)n2)c(O)c1O`, 5.15. In the case of `CC(C)c1ccc(O)c(O)c(=O)c1`, the IC50 result is “inactive”.

By pIC50 is commonly meant the negative decadic logarithm of the IC50, by convention in mol/L. The term IC50 denotes the point on the concentration scale where inhibition reaches its midpoint.
